{"source": "paper PMC5215309", "about": "(European Journal of Nuclear Medicine and Molecular Imaging, 2016)", "molecular_target": "T1, PDE10A (Macaca fascicularis, UniProt A0A2K5WSP5)", "T1 construct": "native enzyme in living brain (in vivo PET; striatum, globus pallidus, substantia nigra)", "T1 sequence (A0A2K5WSP5 1-791)": "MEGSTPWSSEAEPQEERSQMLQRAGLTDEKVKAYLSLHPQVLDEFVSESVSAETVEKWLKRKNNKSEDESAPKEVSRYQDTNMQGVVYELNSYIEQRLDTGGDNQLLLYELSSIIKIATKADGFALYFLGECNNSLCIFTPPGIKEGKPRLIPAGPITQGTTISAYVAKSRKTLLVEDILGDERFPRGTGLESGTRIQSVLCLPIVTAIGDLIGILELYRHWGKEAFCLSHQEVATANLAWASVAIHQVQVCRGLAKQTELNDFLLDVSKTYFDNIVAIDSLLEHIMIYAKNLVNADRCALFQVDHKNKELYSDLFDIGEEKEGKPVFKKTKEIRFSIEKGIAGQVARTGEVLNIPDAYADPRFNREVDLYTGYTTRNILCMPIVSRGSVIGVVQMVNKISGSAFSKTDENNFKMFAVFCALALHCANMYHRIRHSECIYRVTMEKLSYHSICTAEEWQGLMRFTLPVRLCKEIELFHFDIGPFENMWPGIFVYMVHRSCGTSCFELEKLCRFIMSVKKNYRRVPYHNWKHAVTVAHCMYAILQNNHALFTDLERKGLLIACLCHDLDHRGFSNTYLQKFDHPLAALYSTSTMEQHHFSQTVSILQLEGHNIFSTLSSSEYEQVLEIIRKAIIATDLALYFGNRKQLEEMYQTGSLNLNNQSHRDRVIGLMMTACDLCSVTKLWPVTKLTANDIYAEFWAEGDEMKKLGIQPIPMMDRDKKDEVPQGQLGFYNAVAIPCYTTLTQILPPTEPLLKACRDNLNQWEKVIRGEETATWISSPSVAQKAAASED", "experiment": "in vivo PET competition with […]Lu AE92686, Lassen plot", "details": "two monkeys; i.v. pretreatment, mean plasma concentrations 685 and 749 ng/mL", "data": [{"smiles": "Cn1cc(-c2ccncc2)c(-c2ccc(OCc3ccc4ccccc4n3)cc2)n1", "note": "[MP-10]", "values": [{"measurement": "% PDE10A occupancy at […]", "value": "93 and 95"}]}]}
